The series can be described thus: Extractable percent of unreacted silicone, second evaluation (cure rate with active agents). As to conditions: for Cure Rate After 3 Min. (%) / Cure Rate After 120 Min. (%): active agent added to Dispersion 1 aged 1 week at 45° C., slope of extractable plot, lower values = higher reactivity; for effect of active agent on cure (in words): active agent in Dispersion 1, after 120 minutes. The series is classed as physicochemical. Here is the method:
After ageing, the samples are spread out onto silicon free Glassine paper and the water is allowed to evaporate such that the vinyl PDMS and SiH siloxane reaction and form films. More specifically, about 2 grams of each sample is spread using a 1.2 g/m^2 bar equipped with an automatic film application (type 4340 from Braive Instruments). At times from zero to 120 minutes, the percent of vinyl PDMS and SiH siloxane is determined using 30 ml of methylisobutyl ketone (MIBK). Additionally, silicone concentration on the Glassine paper resulting from reacted vinyl PDMS and SiH siloxane is determined by XRF using an Oxford Lab X-3000. The percent unreacted/extractable vinyl PDMS and SiH siloxane is plotted in an extractable plot set forth as FIG. 3. Additional samples of Dispersion 1 are aged for 1 week at 45° C. […] At this point, films are formed from these samples to determine an effect of the active agents on curing and reaction of the vinyl PDMS and SiH siloxane. More specifically, for these samples, an additional extractable plot is generated (not shown in the Figures) using the same method as described above. […] The results of these evaluations are set forth in Table 1 immediately below with lower values representing higher reactivity.

With `[Cl][Ag]` [AgCl], the “Cure Rate After 3 Min. (%)” value was 16.4% and the “Cure Rate After 120 Min. (%)” value is 3.3%.
The corresponding values for `Cn1c(=O)c2c(ncn2C)n(C)c1=O` [Caffeine, caffeine] are 31.7% and 8.5%.
With `Clc1ccccc1C(c1ccccc1)(c1ccccc1)n1ccnc1` [Clotrimazol, clotrimazol], the “Cure Rate After 3 Min. (%)” value stood at 25.7% and the “Cure Rate After 120 Min. (%)” value is listed as 5.4%.
The matching figures for `CC(C)(CO)[C@@H](O)C(=O)NCCCO` [Dexpanthenol, dexpanthenol]: 18.4% and 4.8%.
For `CCN(CC)CC(=O)Nc1c(C)cccc1C` [Lidocaine, lidocaine], the “Cure Rate After 3 Min. (%)” value is on record as 21.1% and the “Cure Rate After 120 Min. (%)” value was found to be 4.9%.
With `O=C(O)c1ccccc1O` [Salicylic acid, salicylic acid], the “Cure Rate After 3 Min. (%)” value was 36.5%, the “Cure Rate After 120 Min. (%)” value came to 12.1% and the “effect of active agent on cure (in words)” value is recorded as “slight inhibition of the cure”.
The matching figures for `O=C(O)c1cccnc1` [Vitamin B3, vitamin B3]: 43.3%, 21.8% and “slight inhibition of the cure”.

The values above are taken from patent US20130287856A1, “Drug Delivery Dispersion And Film Formed Therefrom” (priority 2010, published 2013).
